Among the test systems are U-251; SK-OV-3; HCT-116; NCI/ADR-RES; HCT-15; UO-31; TK-10; MDA-MB-435; NCI-H460; SF-268; LOX IMVI; SK-MEL-5; SK-MEL-2; HOP-62; NCI-H522; HT-29; RPMI-8226; SNB-19; T47D; HCC 2998.
Common to all, as to test: NCI tumour cell line growth inhibition, 48 h

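48-hour exposure; five concentrations; linearly interpolated endpoints. Abbreviation: GI50, concentration required for 50% inhibition of growth.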 Activity calls are given as the source filed them. Cut-off read from the data, not from the text of the source: active = GI50 up to about 1.1 µM and inactive = higher.

As to `COc1ccc(Cc2ccccc2C(=O)O)c2ccccc12`, the GI50 with U-251 was 25.7 µM (inactive); with SK-OV-3, 40.6 µM (inactive); with HCT-116 it was 20.7 µM (inactive); in the assay on NCI/ADR-RES, 32.5 µM (inactive); in the assay with HCT-15, 28.2 µM; in the assay with UO-31, 32.1 µM (inactive). The GI50 in the assay with TK-10 is 24 µM (inactive); with MDA-MB-435, 22 µM (inactive); in the assay on NCI-H460, 18.8 µM (inactive); with SF-268, 22.8 µM (inactive); in the assay on LOX IMVI it was 23.2 µM (inactive); in the assay on SK-MEL-5, 17.3 µM (inactive). The GI50 in the assay with SK-MEL-2 is 22.2 µM (inactive); in the assay with HOP-62, 36.6 µM (inactive); with NCI-H522 it was 20.3 µM (inactive); with HT-29, 28.8 µM (inactive); in the assay with RPMI-8226 it was 29.4 µM (inactive); in the assay on SNB-19, 37.3 µM (inactive). In the assay with T47D, the GI50 is 44.4 µM (inactive).

For the compound `COc1cc2c(/C=C3/C(=O)Nc4ccc(O)cc43)c(Cl)[nH]c2cc1C`, the GI50 in the assay on U-251 was 0.0521 µM (active); in the assay on SK-OV-3, 0.0627 µM (active); in the assay on HCT-116, 0.0897 µM (active); in the assay with NCI/ADR-RES, 0.249 µM (active); in the assay on HCT-15, 0.107 µM; in the assay with UO-31, 0.728 µM (active). The GI50 was 0.398 µM (active) with TK-10; < 0.0137 µM (active) in the assay on MDA-MB-435; 0.454 µM (active) in the assay on NCI-H460; 0.927 µM (active) in the assay with SF-268; 0.0775 µM (active) with LOX IMVI; 0.0822 µM (active) in the assay on SK-MEL-5. Moreover, the GI50 is 0.883 µM (active) in the assay with SK-MEL-2; 0.127 µM (active) in the assay with HOP-62; 0.146 µM (active) in the assay with NCI-H522; 0.149 µM (active) in the assay with HT-29; 0.275 µM (active) in the assay with RPMI-8226; 0.146 µM (active) in the assay on SNB-19. Besides, the GI50 with T47D is 0.0462 µM (active).

On to `O=C(c1ccsc1)c1nccc2c1cnc1ccccc12`, for which the GI50 in the assay on U-251 was 85.1 µM (inactive); in the assay on SK-OV-3, 54.8 µM (inactive); in the assay with HCT-116, 62.1 µM (inactive); with NCI/ADR-RES it was > 100 µM (inactive); in the assay with HCT-15, above 100 µM; in the assay with UO-31, 6.55 µM (inactive). In addition, the GI50 was 42.6 µM (inactive) in the assay with TK-10; > 100 µM (inactive) in the assay with MDA-MB-435; 89.9 µM (inactive) in the assay with NCI-H460; 77.3 µM (inactive) in the assay with SF-268; > 100 µM (inactive) in the assay with LOX IMVI; 36.2 µM (inactive) in the assay with SK-MEL-5. The GI50 in the assay with SK-MEL-2 is > 100 µM (inactive); with HOP-62, 25.5 µM (inactive); in the assay with NCI-H522, 12.7 µM (inactive); in the assay on HT-29, > 100 µM (inactive); in the assay with RPMI-8226, > 100 µM (inactive); with SNB-19, 53.5 µM (inactive). For the same compound, the GI50 in the assay on T47D is > 100 µM (inactive).

For `COc1ccc(-c2cc(-c3cc(C)cc(Br)c3O)no2)cc1`, the GI50 was 5.66 µM (inactive) with U-251; 6.3 µM (inactive) in the assay on SK-OV-3; 10.3 µM (inactive) in the assay on HCT-116; 7.67 µM (inactive) in the assay with NCI/ADR-RES; 24.1 µM in the assay with HCT-15; 12.5 µM (inactive) with UO-31. Besides, the GI50 in the assay with TK-10 was 19.8 µM (inactive); in the assay on MDA-MB-435, 15.9 µM (inactive); with NCI-H460, 5.58 µM (inactive); with SF-268 it was 4.17 µM (inactive); in the assay with LOX IMVI, 6.03 µM (inactive); in the assay with SK-MEL-5 it was 7 µM (inactive). Besides, the GI50 was 22.2 µM (inactive) in the assay with SK-MEL-2; 8.67 µM (inactive) with HOP-62; 3.98 µM (inactive) in the assay with NCI-H522; 31.6 µM (inactive) in the assay with HT-29; 11.2 µM (inactive) with RPMI-8226; 10.5 µM (inactive) in the assay with SNB-19. Besides, in the assay with T47D, the GI50 is 5.38 µM (inactive).

As to `Cn1c2c(c3ccccc31)CCN1C(=O)C3SC21C1C(=O)N(c2ccccc2)C(=O)C31` (stereo not drawn), the GI50 in the assay with U-251 was > 100 µM (inactive); in the assay with SK-OV-3, > 100 µM (inactive); in the assay with HCT-116, > 100 µM (inactive); with NCI/ADR-RES, > 100 µM (inactive); with HCT-15, above 100 µM; with UO-31, > 100 µM (inactive). Also, the GI50 in the assay on TK-10 was 23.8 µM (inactive); in the assay with MDA-MB-435, > 100 µM (inactive); in the assay with SF-268, > 100 µM (inactive); in the assay on LOX IMVI it was > 100 µM (inactive); in the assay with SK-MEL-5, 20.4 µM (inactive); in the assay with SK-MEL-2, 0.0256 µM (active). Further, the GI50 was > 100 µM (inactive) in the assay on HOP-62; > 100 µM (inactive) with NCI-H522; > 100 µM (inactive) in the assay on HT-29; 38.1 µM (inactive) in the assay with RPMI-8226; > 100 µM (inactive) with SNB-19; > 100 µM (inactive) in the assay with T47D.

As to `CC(=O)O[C@H]1CC[C@H]2[C@@H]3CCC4=CC(=O)C=C[C@]4(O)[C@H]3CC[C@]12C`, the GI50 with HCC 2998 is 45.1 µM (inactive); in the assay with U-251, 46 µM (inactive); with HCT-116, 21.9 µM (inactive); in the assay with NCI/ADR-RES it was 12 µM (inactive); in the assay on HCT-15 it was 29.6 µM; with UO-31 it was 55.5 µM (inactive). In addition, the GI50 was > 100 µM (inactive) in the assay on TK-10; 16.4 µM (inactive) with MDA-MB-435; 32.2 µM (inactive) with NCI-H460; 12.9 µM (inactive) in the assay with LOX IMVI; 4.6 µM (inactive) in the assay with SK-MEL-5; 22.1 µM (inactive) in the assay on SK-MEL-2. For the same compound, the GI50 in the assay with HOP-62 is > 100 µM (inactive); with RPMI-8226, 3.47 µM (inactive); in the assay with SNB-19, 71.6 µM (inactive); with T47D it was 13.3 µM (inactive).

`Cc1cn(CCCCOC(=O)NC(CCCNC(N)=O)C(=O)O)c(=O)[nH]c1=O` (stereo not drawn): the GI50 in the assay on HCC 2998 was > 100 µM (inactive); in the assay with U-251, > 100 µM (inactive); in the assay with SK-OV-3, > 100 µM (inactive); in the assay on HCT-116 it was > 100 µM (inactive); in the assay with NCI/ADR-RES, > 100 µM (inactive); in the assay with HCT-15, above 100 µM. In addition, the GI50 in the assay with UO-31, in the assay on TK-10, in the assay on MDA-MB-435, with NCI-H460, in the assay with SF-268 and in the assay on LOX IMVI was > 100 µM (inactive) in each case. Also, the GI50 in the assay on SK-MEL-2, with HOP-62, in the assay with HT-29, with RPMI-8226, in the assay with SNB-19 and with T47D was > 100 µM (inactive) throughout.

With `Cc1nc2c(cc1C(=O)N/N=C/c1ccc([N+](=O)[O-])cc1)c(=O)n(C)c(=O)n2C`, the GI50 in the assay on HCC 2998 is > 100 µM (inactive); in the assay on U-251, 19.2 µM (inactive); with SK-OV-3, 39.4 µM (inactive); in the assay on HCT-116 it was 56.4 µM (inactive); in the assay with NCI/ADR-RES, > 100 µM (inactive); in the assay on HCT-15, above 100 µM. Further, the GI50 in the assay with UO-31 was > 100 µM (inactive); in the assay with TK-10, 54.3 µM (inactive); in the assay with MDA-MB-435, > 100 µM (inactive); in the assay with NCI-H460 it was > 100 µM (inactive); with SF-268, 25.4 µM (inactive); in the assay with SK-MEL-5, > 100 µM (inactive). Also, the GI50 in the assay on SK-MEL-2 is 31.8 µM (inactive); with HOP-62 it was 16.5 µM (inactive); in the assay on HT-29, > 100 µM (inactive); with RPMI-8226, 96.6 µM (inactive); in the assay with SNB-19, 21.4 µM (inactive); in the assay with T47D it was 80.4 µM (inactive).

`O=C1CCCNn2c(nc3ncccc3c2=O)N1`: the GI50 in the assay on U-251 was > 100 µM (inactive); in the assay with SK-OV-3 it was > 100 µM (inactive); in the assay with HCT-116 it was > 100 µM (inactive); in the assay with NCI/ADR-RES, > 100 µM (inactive); in the assay with HCT-15 it was above 100 µM; in the assay on UO-31, > 100 µM (inactive). Besides, the GI50 in the assay with TK-10, in the assay on MDA-MB-435, with NCI-H460, in the assay on SF-268, in the assay with LOX IMVI and in the assay on SK-MEL-5 was > 100 µM (inactive) each time. In addition, the GI50 with SK-MEL-2, in the assay on HOP-62, in the assay on NCI-H522, with HT-29, in the assay on RPMI-8226 and in the assay with SNB-19 was > 100 µM (inactive) each time. Further, in the assay on T47D, the GI50 was > 100 µM (inactive).

Regarding `O=C(O)c1cccc(F)c1C(=O)c1ccc2ccccc2c1`, the GI50 was > 100 µM (inactive) with U-251; > 100 µM (inactive) in the assay with SK-OV-3; > 100 µM (inactive) in the assay with HCT-116; > 100 µM (inactive) in the assay with NCI/ADR-RES; above 100 µM with HCT-15; > 100 µM (inactive) in the assay with UO-31. Further, the GI50 with TK-10 was > 100 µM (inactive); with MDA-MB-435 it was > 100 µM (inactive); in the assay with NCI-H460 it was > 100 µM (inactive); with SF-268, > 100 µM (inactive); in the assay with LOX IMVI, > 100 µM (inactive); in the assay on SK-MEL-5, < 0.01 µM (active). Further, the GI50 with SK-MEL-2 was > 100 µM (inactive); with HOP-62, > 100 µM (inactive); in the assay with NCI-H522 it was 62.2 µM (inactive); in the assay with HT-29, > 100 µM (inactive); in the assay with RPMI-8226, > 100 µM (inactive); in the assay on SNB-19, > 100 µM (inactive). The GI50 in the assay on T47D is 3.94 µM (inactive).

Regarding `COc1ccc(C2(c3ccc(OC)cc3)OC(=O)c3cccc4cccc2c34)cc1`, the GI50 is 3.14 µM (inactive) with HCC 2998; 4.38 µM (inactive) with U-251; 6.46 µM (inactive) with SK-OV-3; 3.71 µM (inactive) in the assay with HCT-116; 2.72 µM (inactive) with NCI/ADR-RES; 4.15 µM with HCT-15. For the same compound, the GI50 is > 100 µM (inactive) in the assay with UO-31; 5.94 µM (inactive) in the assay on TK-10; 2.69 µM (inactive) with MDA-MB-435; 4.69 µM (inactive) in the assay on NCI-H460; > 100 µM (inactive) in the assay with SF-268; 8.89 µM (inactive) in the assay on LOX IMVI. For the same compound, the GI50 in the assay with SK-MEL-5 was 5.25 µM (inactive); in the assay with SK-MEL-2, 8 µM (inactive); in the assay on HOP-62 it was 6.98 µM (inactive); with HT-29, 2.4 µM (inactive); in the assay with RPMI-8226 it was 3.12 µM (inactive); in the assay with SNB-19, 94 µM (inactive). Also, the GI50 in the assay with T47D is 2.24 µM (inactive).

Values taken from ChEMBL document CHEMBL1201862, “PubChem BioAssay data set” (2004).
